Here are results for one compound from patent publication EP0518675A2, “Cyclic renin inhibitors” (MERCK & CO. INC., priority 1991, dated 1992).

Square brackets hold non-standard residues; d marks the D form. Peptide text beside a SMILES is read from it. * marks the point of attachment. Sta = CC(C)C[C@H](N)[C@@H](O)CC(=O)O; Isovaleryl = CC(C)CC(=O)*

Experiment [1] has as its system conscious sodium-deficient Rhesus monkeys. In words: intravenous evaluation of renin inhibitors in conscious sodium-deficient Rhesus monkeys (blood pressure lowering). Format: in vivo. Conditions: i.v. bolus injection, mean arterial pressure. An excerpt:
The following methods were used for in vivo evaluation of the renin inhibitors of Formua I: Intravenous evaluation of renin inhibitors in conscious sodium-deficient Rhesus monkeys: Rhesus monkeys, male and female, weighing 2.6 - 4.5 Kg, were surgically prepared with chronic arterial and venous catheters and vascular access ports for direct monitoring of mean arterial pressure (MAPI) and heart rate (HR). The animals were maintained on a low sodium diet (1.2 mmol Na/day) plus fruit for a week, and administered LASIX (furosemide) at2.5 mg/Kg, intramuscularly the evening prior to the experiment. The animals had been trained to sit quietly in the chairs with water AD LIBIUM for the duration of the experiment. The inhibitors were administered by bolus injection using 0.5% acetic acid-5% dextrose in water as the vehicle (0.4 ml/Kg), and MAP and HRwere measured. Blood samples were withdrawn at different time intervals beginning at the nadir of hypotensive response. PRA was determined as described above. […] A projected ED50 dose for each inhibitor was calculated using the following formula: ED50 (Test Inhibitor, umoles/Kg) = ED50 (SCRIP) X [IC50 (Test Inhibitor)/IC50 (SCRIP)], where the IC50 values were determined against human plasma renin. […] Percent inhibition of monkey PRA, changes in MAP and HR were calculated and plotted against time. […]

For another experiment, the system named is human plasma renin. In words: human plasma renin IC50 determination at pH 7.4. Format: biochemical. The note with it: against human plasma renin. The protocol: The following method was used for in vitro evaluation of the renin inhibitors of Formula I: The human plasma renin IC50 values for inhibitors of Formula I were determined at pH 7.4 following the procedure described in J. Boger, L.S. Payne, D.S. Perlow, N.S. Lohr, M. Poe, E.H. Blaine, E. H. Elm, T.W. Schorn, B.I. Lamont, T.-Y. Lin, M. Kawai, D.H. Rich and D.F. Veber, J. Med. Chem., 28, 1779 (1985).

On to `CC(C)CC(=O)N[C@@H](Cc1c[nH]cn1)C(=O)N1CCC[C@H]1C(=O)N[C@@H](Cc1ccccc1)C(=O)N[C@@H](Cc1c[nH]cn1)C(=O)N[C@@H](CC(C)C)[C@@H](O)CC(=O)N[C@@H](CC(C)C)C(=O)N[C@@H](Cc1ccccc1)C(N)=O` [SCRIP, Iva-His-Pro-Phe-His-Sta-Leu-Phe-NH2] (Isovaleryl-HPFH[Sta]LF-NH2), for which, in experiment [1], the “i.v. dose of the standard inhibitor required to lower blood pressure by 50% of the maximal response (ED50)” value turned out to be 0.039 µmol/kg. In the experiment with human plasma renin, this compound came in with an IC50 of 3.7 nM.

The term IC50 denotes the point on the concentration scale where inhibition reaches its midpoint. Read a high IC50 as weaker potency in that assay.
